According to patent publication US11919860B1 (priority 2023, dated 2024):

What was measured:
[1] = tested on: MDR strain of Mycobacterium tuberculosis; experiment: Anti-tubercular activity, colorimetric Resazurin Microplate Assay (REMA); format: cell-based; details: 192 h, read-out: Anti-tubercular activity against Mycobacterium tuberculosis MDR (MIC)
[2] = tested on: XDR strain of Mycobacterium tuberculosis; experiment: as above; format: cell-based; details: 192 h, read-out: Anti-tubercular activity against Mycobacterium tuberculosis XDR (MIC)

SMILES	MIC [1] [µg/mL]	MIC [2] [µg/mL]
CC(C)OC(=O)c1cc[n+](CC(=O)c2ccccc2)cc1.[Br-] [Compound 4a, 4-(Isopropoxycarbonyl)-1-(2-oxo-2-phenylethyl)pyridin-1-ium Bromide]	2	2
CC(C)OC(=O)c1cc[n+](CC(=O)c2ccc(F)cc2)cc1.[Br-] [Compound 4b, 1-(2-(4-Fluorophenyl)-2-oxoethyl)-4-(isopropoxycarbonyl)pyridin-1-ium bromide]	1	16
